Test results from US6900315B2, “2-amino-9H-purin-9-yl compounds and methods for inhibiting/treating HIV infections and AIDS related symptoms” (Yale University, priority 2001, dated 2005).
Where two headings read alike, the source gives them in different places.

Tests used:
[1] = tested on: HIV; assay: Effect of mycophenolic acid on anti-HIV activity of nucleoside analogs in cell culture; format: cell-based
Method: FIG. 2 presents table 6 and indicates the effect that mycophenolic acid has on the anti-HIV activity of the indicated nucleoside analogs. In the experiment depicted in this Figure, 1×10^5 cells/ml were incubated with or without 200 nM mycophenolic acid for 30 minutes and then added to wells containing nucleoside analogs to test for toxicity and anti-HIV activity. The date presented is representative of at least two independent trials.
In cell culture, the mechanism of activation for D4G prodrugs has been investigated with the initial model compound cyclo D4G. […] Experiments with mycophenolic acid, an inhibitor of inosine monophosphate (IMP) dehydrogenase have been used to study the guanine dependence of activation for cyclo D4G. The addition of mycophenolic acid results in an increase in cellular IMP and a decrease in GMP and all other guanine containing nucleosides and nucleotides. […]. The data which is presented is representative of at least two independent trials. Furthermore, cyclo D4G's activity could be rescued by the addition of guanine to the media (data not shown).

[2] = tested on: HIV IIIB; assay: Anti-HIV activity in MT-2 cells infected with HIV IIIB, MTT dye cell viability; format: cell-based; conditions: for EC50: Human immunodeficiency virus 1, IIIB, MT2, 120 h, read-out: EC50 (concentration necessary to save 50% of the cells); for anti-HIV activity: summary of Table 1
Method: To assess the ability of the compounds according to the present invention to inhibit viral infection relative to other compounds experiments were performed in the MT-2 cell line, as previously described by Larder, et al., Antimicrobial Agents & Chemotherapy, vol. 34, 436 (1990). […] Cells were infected at an initial multiplicity of infection (MOI) of 0.1 and grown for 5 days. Cell viability was assessed by the use of dye metabolized by viable cells.

[3] = tested on: KB; assay: Toxicity, dye based cell growth assay, KB; conditions: Homo sapiens, 120 h
Method: (§1) To determine the toxicity of the compounds to various cell lines (Table 1, below), a similar dye based assay is performed in the absence of HIV. The toxicity of the compounds alone therefore was determined.

[4] = tested on: HIV; assay: Anti-HIV drug combination (synergy, isobologram of FEC50) in cell culture; format: cell-based; conditions: for anti-HIV interaction in combination with AZT: FIG. 4, D4T with AZT data not shown
Method: Points on this line represent the compounds working independently.
In an attempt to understand how D4G prodrugs of the present invention would interact with other clinically approved compounds, experiments were performed with drug combinations. […] Points on the line represent two compounds working independently. […] See, Bridges, et al., Biochem. Pharmacol., 51, 731 (1996) and Dutschman, et al., Antimicro. Agents Chemother. 42, 1799 (1998).

[5] = tested on: mitochondrial DNA in CEM cells; assay: Mitochondrial toxicity: ratio of mitochondrial DNA to Alu repeat in CEM cells; format: cell-based; conditions: 8 days
Text: After 8 days of growth the cells were lysed and probed for the amount of mitochondrial DNA and normalized for differences in the amount of total DNA by probing for the Alu repeat. By comparing the amount of mitochondrial DNA to the amount of Alu repeat the % decrease in mitochondrial DNA in the presence of various concentrations of drug can be obtained. All experiments were done in triplicate. Techniques which are presented here have been previously described in Chen and Cheng, J. Biol. Chem., vol. 264, 11934-7 (1989).

[6] = tested on: CEM; assay: Toxicity, dye based cell growth assay, CEM; conditions: Homo sapiens, CCRF-CEM, 120 h, read-out: IC50 (inhibited 50% of the cell growth)
Method: as §1

[7] = tested on: HeLa; assay: Toxicity, dye based cell growth assay, HeLa; conditions: Homo sapiens, 120 h
Method: as §1

[8] = tested on: HEP-G2; assay: Toxicity, dye based cell growth assay, HEP-G2; conditions: Homo sapiens, HepG2, 120 h, read-out: IC50 (inhibited 50% of the cell growth)
Method: as §1

[9] = tested on: MT-2; assay: Toxicity, dye based cell growth assay in absence of HIV, MT-2; conditions: Homo sapiens, MT2, 120 h, read-out: IC50 (inhibited 50% of the cell growth)
Method: as §1

[10] = biological target: T1, wild type HIV-1 reverse transcriptase (Human immunodeficiency virus type 1 group M subtype B, UniProt P04585); assay: Kinetics of nucleotide incorporation by wild type HIV-1 reverse transcriptase; format: biochemical; design: kpol/Kd: unit not given here
T1 construct: a mixture of 100 nM HIV-1 reverse transcriptase and 300 nM primer/template
Method: Continued research on the guanosine prodrug approach for making D4G a viable anti-HIV agent has yielded a number of new findings. In the present example, enzyme kinetics for the incorporation of the active metabolites of guanosine prodrugs with wild type HIV-1 reverse transcriptase was determined. In this experiment, a mixture of 100 nM HIV-1 reverse transcriptase and 300 nM primer/template in which the correct base incorporation is a guanine nucleotide was rapidly mixed with nucleotide in the presence of 50 mM Tris, 50 mM NaCl and 10 mM MgCl2 for a set amount of time and then the reaction was stopped by the addition 300 mM of EDTA.

[11] = biological target: T2, mitochondrial polymerase gamma (Homo sapiens, UniProt P54098); assay: Exonuclease removal from chain terminated primer template by mitochondrial polymerase gamma; format: biochemical
T2 sequence (P54098 1-1239): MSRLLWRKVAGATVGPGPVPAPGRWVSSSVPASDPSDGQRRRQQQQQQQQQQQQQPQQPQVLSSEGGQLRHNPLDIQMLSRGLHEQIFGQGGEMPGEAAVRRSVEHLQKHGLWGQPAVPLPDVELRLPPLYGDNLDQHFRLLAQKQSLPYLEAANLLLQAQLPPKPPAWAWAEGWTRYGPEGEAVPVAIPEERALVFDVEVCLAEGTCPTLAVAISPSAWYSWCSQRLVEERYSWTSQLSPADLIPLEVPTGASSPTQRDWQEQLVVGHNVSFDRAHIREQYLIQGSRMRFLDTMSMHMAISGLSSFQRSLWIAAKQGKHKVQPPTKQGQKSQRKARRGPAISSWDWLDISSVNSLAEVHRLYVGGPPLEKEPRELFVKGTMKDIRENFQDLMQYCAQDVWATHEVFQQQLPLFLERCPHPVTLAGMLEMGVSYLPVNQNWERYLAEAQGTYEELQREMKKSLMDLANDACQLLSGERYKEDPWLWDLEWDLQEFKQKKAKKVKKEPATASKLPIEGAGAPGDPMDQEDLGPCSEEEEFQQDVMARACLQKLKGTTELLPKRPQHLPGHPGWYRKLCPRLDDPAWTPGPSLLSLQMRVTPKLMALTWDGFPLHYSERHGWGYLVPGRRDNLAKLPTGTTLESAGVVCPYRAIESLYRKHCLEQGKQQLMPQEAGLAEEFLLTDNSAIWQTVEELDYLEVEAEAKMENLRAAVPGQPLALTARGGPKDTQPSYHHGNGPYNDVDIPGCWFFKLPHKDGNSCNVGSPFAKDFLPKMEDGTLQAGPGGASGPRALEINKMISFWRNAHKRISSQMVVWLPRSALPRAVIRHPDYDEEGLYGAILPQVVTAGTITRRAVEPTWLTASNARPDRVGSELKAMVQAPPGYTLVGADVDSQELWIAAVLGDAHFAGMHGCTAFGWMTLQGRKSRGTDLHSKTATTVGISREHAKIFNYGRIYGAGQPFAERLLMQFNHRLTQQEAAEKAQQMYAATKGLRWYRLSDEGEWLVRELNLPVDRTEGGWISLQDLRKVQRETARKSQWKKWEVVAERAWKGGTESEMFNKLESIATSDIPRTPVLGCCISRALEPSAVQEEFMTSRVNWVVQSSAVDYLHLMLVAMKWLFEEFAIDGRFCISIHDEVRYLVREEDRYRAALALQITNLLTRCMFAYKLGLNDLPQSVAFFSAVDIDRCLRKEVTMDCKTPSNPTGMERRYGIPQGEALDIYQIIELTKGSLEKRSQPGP

[12] = biological target: T2, mitochondrial polymerase gamma; assay: Nucleotide incorporation by mitochondrial polymerase gamma into an elongating DNA strand; format: biochemical
[13] = tested on: HIV; conditions: cited from earlier work
[14] = tested on: HIV; conditions: pairs: D4T and AZT, 3TC and ddC, FD4C and 3TC, abacavir and cyclo D4G; Bridges et al., Dutschman et al.; cited from earlier work
[15] = read-out: IC50 (inhibited 50% of the cell growth), oral carcinoma, 5 days
[16] = read-out: IC50 (inhibited 50% of the cell growth), cervical cancer cell line, 5 days
[17] = HEP-G2, hepatoma cell line, 5 days
[18] = MT-2, HTLV infected T cell line, 5 days
[19] = Table 4, primer/template DNA/DNA, RT WT
[20] = Table 4, primer/template DNA/RNA, RT WT
[21] = mitochondrial polymerase gamma, incorporation
[22] = read-out: IC50 (inhibited 50% of the cell growth)

## Nc1nc(NC2CC2)c2ncn([C@H]3C=C[C@@H](CO)O3)c2n1 [Cd4G, 2-Amino-6-cyclopropylamino-9-(2,3-dideoxy-β-D-glycero-pent-2-enofuranosyl)purine]
[1]; 200 nM mycophenolic acid, 30 minutes, 1×10^5 cells/ml
  fold less active (anti-HIV) in the presence of mycophenolic acid: 3 fold
[1]; in the presence of mycophenolic acid, data not shown
  anti-HIV activity on addition of guanine to the media: rescued
[2]
  EC50: 8 µM
  anti-HIV activity: strong anti-HIV activity
[3]; [15]
  IC50: > 500 µM
[4]; FIG. 3 and FIG. 4
  anti-HIV interaction in combination with 3TC: synergistic
[4]; FIG. 4
  anti-HIV interaction in combination with D4T: somewhat synergistic
[4]
  anti-HIV interaction in combination with AZT: synergistic
[5]; human
  mitochondrial toxicity: lower mitochondrial toxicity than D4T
[5]; human, 1 μM
  % Control (mtDNA/Alu): 99%
  Ration of mtDNA/Alu: 1.06 ± 0.11
[5]; human, 10 μM
  % Control (mtDNA/Alu): 84%
  Ration of mtDNA/Alu: 0.90 ± 0.06
[5]; human, 200 μM
  % Control (mtDNA/Alu): 43%
  Ration of mtDNA/Alu: 0.46 ± 0.06
[6]; CEM, T cell line, 5 days
  IC50: 200 ± 31 µM
[7]; [16]
  IC50: 500 ± 33 µM
[8]; [17]
  IC50: > 500 µM
[9]; [18]
  IC50: 100 ± 22 µM

## Nc1nc2c(ncn2[C@H]2C=C[C@@H](COP(=O)(O)OP(=O)(O)OP(=O)(O)O)O2)c(=O)[nH]1 [D4GTP]
[10]; Table 3, substrate DNA/DNA
  Kd: 11 ± 2 µM
  Selectivity = (kpol/Kd)dGTP/(kpol/Kd)analog: 1.5
  kpol: 11 ± 1 s⁻¹
  kpol/Kd: 1.1 ± 0.26
[10]; Table 3, substrate DNA/RNA
  Kd: 9.5 ± 1.1 µM
  Selectivity = (kpol/Kd)dGTP/(kpol/Kd)analog: 2
  kpol: 13 ± 0.5 s⁻¹
  kpol/Kd: 1.4 ± 0.2
[10]; [19]
  Efficiency: 1.1 ± 0.3 s^−1μM^−1
  Kd: 11 ± 2 µM
  Selectivity = efficiency dGTP/efficiency analog: 2
  kpol: 11 ± 1 s⁻¹
[10]; [20]
  Efficiency: 1.4 ± 0.2 s^−1μM^−1
  Kd: 9.5 ± 1.1 µM
  Selectivity = efficiency dGTP/efficiency analog: 2
  kpol: 13 ± 0.5 s⁻¹
[11]
  kexo: 0.00046 ± 0.000021 s⁻¹
[12]; fold increase in time for mitochondrial replication, 1 = no toxicity
  Toxicity Index: 320
[12]; [21]
  Kd: 0.61 ± 0.13 µM
  kpol: 0.27 ± 0.02 s⁻¹
  kpol/Kd: 450000 ± 99000 M⁻¹ s⁻¹

## Nc1nc2c(ncn2[C@H]2C=C[C@@H](CO)C2)c(=O)[nH]1 [carbovir]
[13]
  previously reported activity against HIV: significant activity

## Nc1nc2c(ncn2[C@H]2C=C[C@@H](CO)O2)c(=O)[nH]1 [d4G, 9-(2,3-Dideoxy-β-D-glycero-pent-2-enofuranosyl)guanine]
[2]
  anti-HIV activity: complete inactivity
[3]; [15]
  IC50: > 500 µM
[5]; human, 1 μM
  % Control (mtDNA/Alu): 105%
  Ration of mtDNA/Alu: 1.12 ± 0.17
[5]; human, 10 μM
  % Control (mtDNA/Alu): 106%
  Ration of mtDNA/Alu: 1.14 ± 0.07
[6]; CEM, T cell line, 5 days
  IC50: 70 ± 11 µM
[13]
  previously reported activity against HIV: inactive
[7]; [16]
  IC50: 200 ± 13 µM
[8]; [17]
  IC50: 280 ± 19 µM
[9]; [18]
  IC50: 40 ± 9 µM

## Cc1cn([C@H]2C=C[C@@H](CO)O2)c(=O)[nH]c1=O [d4T, 2′,3′-didehydro-2′,3′-dideoxythymidine]
[2]
  EC50: 3 ± 0.7 µM
[3]; [22]
  IC50: 450 ± 47 µM
[4]
  anti-HIV interaction in combination with AZT: only additive
[5]; compound 1 μM, CEM cells
  % Control (mtDNA/Alu): 110%
  Ration of mtDNA/Alu: 1.18 ± 0.03
[5]; compound 10 μM, CEM cells
  % Control (mtDNA/Alu): 94%
  Ration of mtDNA/Alu: 1.00 ± 0.02
[5]; compound 200 μM, CEM cells
  % Control (mtDNA/Alu): 21%
  Ration of mtDNA/Alu: 0.22 ± 0.03
[14]
  anti-HIV interaction of two analogs of the same base: not synergistic
[6]
  IC50: 190 ± 30 µM
[7]; [22]
  IC50: 480 ± 31 µM
[8]
  IC50: 390 ± 26 µM
[9]
  IC50: > 100 µM
